The results in this text go back to patent publication US10668055B2, “Cancer treatment using combinations of ERK and RAF inhibitors” (BIOMED VALLEY DISCOVERIES, INC., priority 2013, dated 2020).

The assay has as its system A375 cells. The assay can be described thus: Proliferation assay (Alamar Blue, 96 hours) on parental and dose-escalated A375 cell lines. Particulars: Homo sapiens.

SMILES strings stand for the structures. Like-named read-outs stand apart in the source and are kept apart here.

Procedure: Cancer cell lines were maintained in cell culture under standard media and serum conditions. For dose escalation studies, A375 cells were split, grown to about 40-60% confluence, and then treated with the initial dose of the specified drug.
Proliferation assays were used to track changes in sensitivity to the escalated agent(s) at appropriate time intervals (e.g. each month, although the timing is dependent on adequate cell numbers being available). For proliferation assays, cells were seeded in 96-well plates at 3000 cells per well in drug-free DMEM medium containing 10% FBS and allowed to adhere overnight prior to addition of compound or vehicle control. […] Test compounds were incubated with the cells for 96 hours at 37° C. and 5% CO2 in a humidified atmosphere. Alamar Blue 10% (v/v) was then added and incubated for 4 hours and fluorescent product was detected using a BMG FLUOstar plate reader. The average media only background value was deducted and the data analyzed using a 4-parameter logistic equation in GraphPad Prism. Paclitaxel was used as a positive control.

On to `CC(=O)Nc1cccc(-n2c(=O)n(C3CC3)c(=O)c3c(Nc4ccc(I)cc4F)n(C)c(=O)c(C)c32)c1` [Trametinib], for which the IC50 is, setting by setting: (A-375, read-out: Relative IC50, Month 1, Par = Parental cell line) 0.5 nM; (A-375, read-out: Relative IC50, Month 1, cell line BVD-523 (0.48 μM)) 0.7 nM; (A-375, read-out: Relative IC50, Month 1, cell line Dab (15 nM Dab)) 2.5 nM; (A-375, read-out: Relative IC50, Month 1, cell line Dab/523 (7.5 nM/0.24 μM)) 3.1 nM; (A-375, read-out: Relative IC50, Month 1, cell line Tram (growing in 2 nM Tram)) 2.2 nM; (A-375, read-out: Relative IC50, Month 2, Par = Parental cell line) 0.4 nM. Also, the IC50 is 24.3 nM (A-375, read-out: Relative IC50, Month 2, cell line BVD-523 (0.8 μM)); 1.1 nM (A-375, read-out: Relative IC50, Month 2, cell line Dab (127 nM Dab)); 6.2 nM (A-375, read-out: Relative IC50, Month 2, cell line Dab/523 (12.5 nM/0.4 μM)); 0.7 nM (A-375, read-out: Relative IC50, Month 2, cell line Tra (8 nM Tram)); 0.2 nM (A-375, read-out: Relative IC50, Month 3, Par = Parental cell line); 0.4 nM (A-375, read-out: Relative IC50, Month 3, cell line Dab (3.2 μM Dab)).

Broadly, the IC50 is the concentration that inhibits the measured activity by half.
